Experimental data as given in patent US8246985B2, “Pharmaceutical composition comprising lipase inhibitor and lipophilic oil absorbent and oral formulation prepared therefrom” (Amorepacific Corporation, priority 2006, dated 2012).

Experiment: Oil adsorption test for selection of lipophilic oil absorbent
Type: physicochemical
Details: for Amount of remained oil: 1.5 g substance (0.1 g hydroxypropyl methyl cellulose and polyethylene oxide, 0.5 g light anhydrous silicic acid), 5 g soybean oil, 15 g purified water, mixed 2 min, centrifuged 3,000 g 5 min, weight of supernatant oil layer; for Adsorption (%): ratio of oil adsorbed (dispersants: oil within dispersing layer) to total oil amount (5 g)
Method: In order to select a lipophilic oil absorbent that is capable of adsorbing unabsorbed free oil by the action of a lipase inhibitor, various substances known as a dispersant or adsorbent were subjected to an adsorption test as follows. 1.5 g of each ingredient listed in Table 1 (excepted for 0.1 g of each of hydroxypropyl methyl cellulose and polyethylene oxide, 0.5 g of light anhydrous silicic acid), 5 g of soybean oil and 15 g of purified water were mixed in a test tube for 2 minutes and centrifuged at 3,000 g for 5 minutes. After separating the supernatant oil layer, the oil adsorption degree of each substance was determined.
In table 1, the amount of oil remained was measured from the weight of the oil layer after adsorption, and the adsorption (%) means the ratio of the amount of oil adsorbed (which is obtained by subtracting the remained oil amount from the total oil amount) to the total amount of oil. On using a dispersant, the amount of oil remained means the oil amount of a supernatant excepting oil dispersed layer, and the adsorption (%) means the ratio of the oil amount within the dispersing layer to the total oil amount (5 g).

Polyoxyethylene(2) cetyl ether
Amount of remained oil: 2.79 g
Adsorption (%): 2.79%

CCCCCCCCCCCCOS(=O)(=O)[O-].[Na+] [Sodium lauryl sulfate]
Amount of remained oil: 0.00 g
Adsorption (%) (sulfate): 100%

Sorbitan trioleate
Amount of remained oil: 0.17 g
Adsorption (%): 1.13%
